Results published in paper PMC10714400, “Antimicrobial Peptide–Peptoid Hybrids with and without Membrane Disruption” (ACS Infectious Diseases, 2023).
Converted amounts (≈) assume the structure as drawn. Where two headings read alike, the source gives them in different places. Where a SMILES comes first, the peptide text is derived from it. [ ]: non-standard residue; d: D form. Nleu = CC(C)CNCC(=O)O; Nlys = NCCCCNCC(=O)O

Tests used:
[1] = test system: A549 cells; assay: Cell viability assay by Alamar blue; type: cell-based; details: CSV; read-out: Toxicity on A549 lung cancern cells
Procedure: The data are represented as the mean value ± SD, n = 3. […] (c) Vesicle leakage assay for a selection of compounds. Lipid vesicles made of EYPG or EYPC were suspended in a buffer (10 mM TRIS, 107 mM NaCl, pH 7.4). After 45 s, the indicated compound was added to reach the desired concentration. After 240 s, 30 μL of 1.2% TritonX-100 was added for full fluorescein release. […] See Supporting Information for the full curves, all of the data, and procedures.
HEK293 cells were cultured and maintained in DMEM high glucose (Dulbecco’s modified Eagle medium, Sigma Aldrich) medium supplemented with 10% FBS (Sigma Aldrich) and 1% penicillin/streptomycin. A549 cells were cultured and maintained in RPMI-1640 medium (Sigma Aldrich), supplemented with 10% FBS (Sigma Aldrich) and 1% penicillin/streptomycin. The cells were handled and subcultured according to the manufacturer instructions. Cells were incubated in a humidified incubator at 37 °C in the presence of 5% CO2.
Assays on HEK293, A549 cells were performed as described earlier.[74] […]

[2] = test system: K. pneumoniae NCTC418
Method in brief: (§1)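 MTT added (20–30 min, room temperature); MIC read by eye as lowest concentration inhibiting visible growth (yellow). Polymyxin B positive control from 16 μg/mL.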

[3] = test system: PA14 4.18 (pmrB); details: for MIC P. aeruginosa PA14 4.18, […] MH at pH 8.5 / MIC P. aeruginosa PA14 4.18, full MH at pH 7.4: CSV; for MIC PA14 4.18 (pmrB): MH pH 7.4, 16–20 h at 37 °C; for MIC P. aeruginosa PA14 4.18: Table S3; for MIC P. aeruginosa PA14 4.18, […] MH at pH 8.5 / MIC P. aeruginosa PA14 4.18: […] MH at pH 8.5
Method in brief: (§2)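 MICs were determined by broth microdilution in MH medium, with approximately 5 × 10^5 CFU added per well and plates held at 37 °C for about 18 h without shaking.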

[4] = test system: P. aeruginosa PAO1
Method in brief: as §2

[5] = test system: A. baumannii ATCC19606
Method in brief: as §1

Question: With `CC(C)C[C@H](NC(=O)[C@H](CCCCN)NC(=O)CNCCCCN)C(=O)N[C@@H](CC(C)C)C(=O)N[C@@H](CCCCN)C(=O)N[C@@H](CC(C)C)C(=O)N[C@@H](CC(C)C)C(=O)N[C@@H](CCCCN)C(=O)N[C@@H](CC(C)C)C(=O)N[C@@H](CC(C)C)C(=O)N(CC(N)=O)CC(C)C` [EB1] (H-[Nlys]KLLKLLKLL[Nleu]-NH2; N-terminus assumed) as the compound, how does the IC50 [1] read?
Answer: 69 ± 2 µM

Question: What about the “MIC K. pneumoniae NCTC418, full MH at pH 7.4” value ([2]; NCTC418, 4 h, pH 7.4) of the same compound?
Answer: 8 ug/mL

Question: What about the “MIC K. pneumoniae NCTC418 […] 7.4” value ([2]; Table S2, […] MH, pH 7.4) of the same compound?
Answer: 2 µg/mL (≈ 1.51 µM)

Question: And the “MIC K. pneumoniae NCTC418 Full MH 7.4” value ([2]; Table S2, full MH, pH 7.4)?
Answer: 8 µg/mL (≈ 6.05 µM)

Question: What about the “MIC K. pneumoniae NCTC418 Full MH 8.5” value ([2]; Table S2, full MH, pH 8.5) of the same compound?
Answer: > 32 µg/mL

Question: What about the “MIC P. aeruginosa PA14 4.18, […] MH at pH 8.5” value [3] of the same compound?
Answer: 2 ug/mL

Question: And the “MIC P. aeruginosa PA14 4.18, full MH at pH 7.4” value [3]?
Answer: 32 ug/mL

Question: And the “MIC PA14 4.18 (pmrB)” value [3]?
Answer: 32 µg/mL (≈ 24.2 µM)

Question: And the “MIC P. aeruginosa PA14 4.18” value [3]?
Answer: 2 µg/mL (≈ 1.51 µM)

Question: And the “MIC P. aeruginosa PAO1, full MH at pH 7.4” value ([4]; PAO1, 4 h, pH 7.4)?
Answer: 4 ug/mL

Question: And the “MIC P. aeruginosa PAO1 […] 7.4” value ([4]; Table S2, […] MH, pH 7.4)?
Answer: 2 µg/mL (≈ 1.51 µM)

Question: What about the “MIC P. aeruginosa PAO1 […] 8.5” value ([4]; Table S2, […] MH, pH 8.5) of the same compound?
Answer: 2 µg/mL (≈ 1.51 µM)

Question: And the “MIC P. aeruginosa PAO1 Full MH 7.4” value ([4]; Table S2, full MH, pH 7.4)?
Answer: 4 µg/mL (≈ 3.03 µM)

Question: What about the “MIC P. aeruginosa PAO1 Full MH 8.5” value ([4]; Table S2, full MH, pH 8.5) of the same compound?
Answer: 16 µg/mL (≈ 12.1 µM)

Question: What about the “MIC A. baumannii ATCC19606, full MH at pH 7.4” value ([5]; ATCC19606, 4 h, pH 7.4) of the same compound?
Answer: 2 ug/mL

Question: And the “MIC A. baumannii ATCC19606 […] 7.4” value ([5]; Table S2, […] MH, pH 7.4)?
Answer: 2 µg/mL (≈ 1.51 µM)

Question: And the “MIC A. baumannii ATCC19606 Full MH 7.4” value ([5]; Table S2, full MH, pH 7.4)?
Answer: 2 µg/mL (≈ 1.51 µM)

Question: What about the “MIC A. baumannii ATCC19606 Full MH 8.5” value ([5]; Table S2, full MH, pH 8.5) of the same compound?
Answer: > 32 µg/mL

Question: For `CC(C)C[C@H](NC(=O)[C@H](CC(C)C)NC(=O)[C@H](CC(C)C)NC(=O)[C@H](CCCCN)NC(=O)[C@H](CC(C)C)NC(=O)[C@H](CC(C)C)NC(=O)CN(CCCCN)C(=O)CN(CC(C)C)C(=O)CN(CC(C)C)C(=O)CN(CCCCN)C(=O)CNCCCCN)C(N)=O` [EB5, kkllkLLKLLL] (H-[Nlys][Nlys][Nleu][Nleu][Nlys]LLKLLL-NH2), which “MIC K. pneumoniae NCTC418, full MH at pH 7.4” value ([2]; NCTC418, 4 h, pH 7.4) is on record?
Answer: >32 ug/mL

Question: What about the “MIC K. pneumoniae NCTC418, full MH at pH 8.5” value ([2]; NCTC418, 4 h, pH 8.5) of the same compound?
Answer: 24 ug/mL

Question: And the “MIC K. pneumoniae NCTC418 Full MH 8.5” value ([2]; NCTC418, 4 h, pH 8.5)?
Answer: 16 to 32 µg/mL

Question: And the “MIC P. aeruginosa PA14 4.18, […] MH at pH 8.5” value [3]?
Answer: 2 ug/mL

Question: What about the “MIC P. aeruginosa PA14 4.18, full MH at pH 7.4” value [3] of the same compound?
Answer: 32 ug/mL

Question: And the “MIC PA14 4.18 (pmrB)” value [3]?
Answer: 32 µg/mL (≈ 24.2 µM)

Question: What about the “MIC P. aeruginosa PA14 4.18” value [3] of the same compound?
Answer: 2 µg/mL (≈ 1.51 µM)

Question: What about the “MIC P. aeruginosa PAO1, full MH at pH 7.4” value ([4]; PAO1, 4 h, pH 7.4) of the same compound?
Answer: 4 ug/mL

Question: And the “MIC P. aeruginosa PAO1, full MH at pH 8.5” value ([4]; PAO1, 4 h, pH 8.5)?
Answer: >32 ug/mL

Question: What about the “MIC A. baumannii ATCC19606, full MH at pH 7.4” value ([5]; ATCC19606, 4 h, pH 7.4) of the same compound?
Answer: 2 ug/mL

Question: What about the “MIC A. baumannii ATCC19606, full MH at pH 8.5” value ([5]; ATCC19606, 4 h, pH 8.5) of the same compound?
Answer: >32 ug/mL
